Assay results: PubChem BioAssay (NCI)
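These data come from cells grown in 96-well plates and exposed to compound for 48 hours at five concentrations. GI50 marks 50% less growth. TGI: total growth inhibition.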

What was measured:
Assay in all cases: NCI anticancer screen, dose series, 48 h
EKVX NSCLC = tested on: EKVX NSCLC
DU-145 prostate = tested on: DU-145 prostate
K-562 leukemia = tested on: K-562 leukemia
UACC-62 melanoma = tested on: UACC-62 melanoma
HCC-2998 colon = tested on: HCC-2998 colon
NCI-H522 lung = tested on: NCI-H522 lung
NCI-H23 lung = tested on: NCI-H23 lung
TK-10 renal = tested on: TK-10 renal
SF-268 CNS = tested on: SF-268 CNS
KM12 colon = tested on: KM12 colon
NCI-H460 lung = tested on: NCI-H460 lung
OVCAR-8 ovarian = tested on: OVCAR-8 ovarian
CCRF-CEM leukemia = tested on: CCRF-CEM leukemia
HL-60(TB) leukemia = tested on: HL-60(TB) leukemia
NCI-H226 lung = tested on: NCI-H226 lung
A549 NSCLC = tested on: A549 NSCLC
NCI/ADR-RES ovarian = tested on: NCI/ADR-RES ovarian
HCT-116 colon = tested on: HCT-116 colon
RXF 393 renal = tested on: RXF 393 renal
SW-620 colon = tested on: SW-620 colon
RPMI-8226 leukemia = tested on: RPMI-8226 leukemia
SF-539 CNS = tested on: SF-539 CNS
SR leukemia = tested on: SR leukemia
SF-295 CNS = tested on: SF-295 CNS
MCF7 breast = tested on: MCF7 breast
MALME-3M melanoma = tested on: MALME-3M melanoma
A498 renal = tested on: A498 renal
LOX IMVI melanoma = tested on: LOX IMVI melanoma
SK-MEL-28 melanoma = tested on: SK-MEL-28 melanoma
SK-OV-3 ovarian = tested on: SK-OV-3 ovarian
OVCAR-3 ovarian = tested on: OVCAR-3 ovarian
SK-MEL-5 melanoma = tested on: SK-MEL-5 melanoma
SK-MEL-2 melanoma = tested on: SK-MEL-2 melanoma
SN12C renal = tested on: SN12C renal
MDA-MB-435 = tested on: MDA-MB-435
UO-31 renal = tested on: UO-31 renal
M14 melanoma = tested on: M14 melanoma
786-0 renal = tested on: 786-0 renal
HOP-62 NSCLC = tested on: HOP-62 NSCLC
PC-3 prostate = tested on: PC-3 prostate
OVCAR-5 ovarian = tested on: OVCAR-5 ovarian
HS 578T breast = tested on: HS 578T breast
CAKI-1 renal = tested on: CAKI-1 renal
MOLT-4 leukemia = tested on: MOLT-4 leukemia
UACC-257 melanoma = tested on: UACC-257 melanoma
ACHN renal = tested on: ACHN renal
HCT-15 colon = tested on: HCT-15 colon
BT-549 breast = tested on: BT-549 breast
OVCAR-4 ovarian = tested on: OVCAR-4 ovarian
T-47D breast = tested on: T-47D breast
HOP-92 NSCLC = tested on: HOP-92 NSCLC
IGROV1 ovarian = tested on: IGROV1 ovarian
COLO 205 colon = tested on: COLO 205 colon
MDA-MB-231 breast = tested on: MDA-MB-231 breast
U251 CNS = tested on: U251 CNS
SNB-19 CNS = tested on: SNB-19 CNS
SNB-75 CNS = tested on: SNB-75 CNS
HT29 colon = tested on: HT29 colon

Cc1nn(-c2ccccc2)c2ncnc(N/N=C/c3ccccc3O)c12
GI50 (EKVX NSCLC): 391 nM | TGI (EKVX NSCLC): > 43.3 µM | GI50 (DU-145 prostate): 318 nM | TGI (DU-145 prostate): > 100 µM | GI50 (K-562 leukemia): 397 nM | TGI (K-562 leukemia): > 100 µM | GI50 (UACC-62 melanoma): 2010 nM | TGI (UACC-62 melanoma): 12.1 µM | GI50 (HCC-2998 colon): 793 nM | TGI (HCC-2998 colon): 35.2 µM | GI50 (NCI-H522 lung): 416 nM | TGI (NCI-H522 lung): 44.9 µM | GI50 (NCI-H23 lung): 509 nM | TGI (NCI-H23 lung): 25.5 µM | GI50 (TK-10 renal): 2970 nM | TGI (TK-10 renal): > 70.6 µM | GI50 (SF-268 CNS): 300 nM | TGI (SF-268 CNS): > 100 µM | GI50 (KM12 colon): 382 nM | TGI (KM12 colon): > 100 µM | GI50 (NCI-H460 lung): 382 nM | TGI (NCI-H460 lung): > 78.4 µM | GI50 (OVCAR-8 ovarian): 354 nM | TGI (OVCAR-8 ovarian): > 100 µM | GI50 (CCRF-CEM leukemia): 140 nM | TGI (CCRF-CEM leukemia): > 100 µM | GI50 (HL-60(TB) leukemia): 370 nM | TGI (HL-60(TB) leukemia): > 100 µM | GI50 (NCI-H226 lung): 2550 nM | TGI (NCI-H226 lung): 8.59 µM | GI50 (A549 NSCLC): 936 nM | TGI (A549 NSCLC): > 41.9 µM | GI50 (NCI/ADR-RES ovarian): 331 nM | TGI (NCI/ADR-RES ovarian): 8.54 µM | GI50 (HCT-116 colon): 422 nM | TGI (HCT-116 colon): 27.3 µM | GI50 (RXF 393 renal): 882 nM | TGI (RXF 393 renal): 9.11 µM | GI50 (SW-620 colon): 537 nM | TGI (SW-620 colon): > 96 µM | GI50 (RPMI-8226 leukemia): 394 nM | TGI (RPMI-8226 leukemia): 33.2 µM | GI50 (SF-539 CNS): 396 nM | TGI (SF-539 CNS): 7.13 µM | GI50 (SR leukemia): 232 nM | TGI (SR leukemia): > 100 µM | GI50 (SF-295 CNS): 407 nM | TGI (SF-295 CNS): 11.7 µM | GI50 (MCF7 breast): 353 nM | TGI (MCF7 breast): 12.5 µM | GI50 (MALME-3M melanoma): 505 nM | TGI (MALME-3M melanoma): 11.8 µM | GI50 (A498 renal): 2820 nM | TGI (A498 renal): 11.2 µM | GI50 (LOX IMVI melanoma): 317 nM | TGI (LOX IMVI melanoma): 5.73 µM | GI50 (SK-MEL-28 melanoma): 481 nM | TGI (SK-MEL-28 melanoma): > 100 µM | GI50 (SK-OV-3 ovarian): 465 nM | TGI (SK-OV-3 ovarian): 4.72 µM | GI50 (OVCAR-3 ovarian): 306 nM | TGI (OVCAR-3 ovarian): 46.3 µM | GI50 (SK-MEL-5 melanoma): 621 nM | TGI (SK-MEL-5 melanoma): 4.72 µM | GI50 (SK-MEL-2 melanoma): 633 nM | TGI (SK-MEL-2 melanoma): 47.1 µM | GI50 (SN12C renal): 520 nM | TGI (SN12C renal): > 49.6 µM | GI50 (MDA-MB-435): 544 nM | TGI (MDA-MB-435): > 100 µM | GI50 (UO-31 renal): 325 nM | TGI (UO-31 renal): 2850 nM | GI50 (M14 melanoma): 270 nM | TGI (M14 melanoma): 1640 nM | GI50 (786-0 renal): 396 nM | TGI (786-0 renal): 27.7 µM | GI50 (HOP-62 NSCLC): 288 nM | TGI (HOP-62 NSCLC): 6.23 µM | GI50 (PC-3 prostate): 345 nM | TGI (PC-3 prostate): > 49.7 µM | GI50 (OVCAR-5 ovarian): 3.85 µM | TGI (OVCAR-5 ovarian): > 100 µM | GI50 (HS 578T breast): 1830 nM | TGI (HS 578T breast): > 100 µM | GI50 (CAKI-1 renal): 943 nM | TGI (CAKI-1 renal): 8.86 µM | GI50 (MOLT-4 leukemia): 280 nM | TGI (MOLT-4 leukemia): > 59 µM | GI50 (UACC-257 melanoma): 1810 nM | TGI (UACC-257 melanoma): 31.1 µM | GI50 (ACHN renal): 283 nM | TGI (ACHN renal): 40.4 µM | GI50 (HCT-15 colon): 266 nM | TGI (HCT-15 colon): 17.5 µM | GI50 (BT-549 breast): 996 nM | TGI (BT-549 breast): 41.9 µM | GI50 (OVCAR-4 ovarian): 303 nM | TGI (OVCAR-4 ovarian): > 54.3 µM | GI50 (T-47D breast): 1920 nM | TGI (T-47D breast): 13.7 µM | GI50 (HOP-92 NSCLC): 455 nM | TGI (HOP-92 NSCLC): 6.75 µM | GI50 (IGROV1 ovarian): 597 nM | TGI (IGROV1 ovarian): 16.5 µM | GI50 (COLO 205 colon): 385 nM | TGI (COLO 205 colon): 22.9 µM | GI50 (MDA-MB-231 breast): 529 nM | TGI (MDA-MB-231 breast): 53.3 µM | GI50 (U251 CNS): 425 nM | TGI (U251 CNS): > 49.5 µM | GI50 (SNB-19 CNS): 507 nM | TGI (SNB-19 CNS): > 100 µM | GI50 (SNB-75 CNS): 267 nM | TGI (SNB-75 CNS): 2990 nM | GI50 (HT29 colon): 1120 nM | TGI (HT29 colon): > 50 µM
